Test: gradient 5% acetonitrile 3 min, to 50% in 2 min, to 85% in 15 min, held 3 min, 100 µL/min
Settings: column: Zorbax Extend-C18 2.1 x 50 mm; eluents: water / acetonitrile, 0.1% formic acid
Procedure, shortened: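 A Zorbax Extend-C18 column (2.1 × 50 mm, 1.8 μm) run at 100 μL/min with water and acetonitrile, both containing 0.1% formic acid, separated mixtures of ~100 pure standards. The HPLC was coupled to a quadrupole time-of-flight mass spectrometer operated in positive and negative ionization mode, with dead and dwell volumes of 40 μL and 900 μL. Each retention time was taken from a computationally picked adduct peak that was then manually inspected.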

Structure (SMILES)	RP-LC retention time [s]
CC(C)CNC(=O)CCc1nc2ccccc2n(CC(=O)NCc2ccccc2Cl)c1=O	822
O=C(Nc1cc(C(F)(F)F)ccc1Cl)c1ccc(N2C(=O)CCC2=O)cc1	821
CCCNC(=O)c1ccc2nc(CCc3ccc(NC(=O)CC)cc3)[nH]c2c1	608
COc1ccc(NC(=O)Cn2cnc3nc(N4CCC(C)CC4)ncc3c2=O)cc1Cl	834
COc1ccc2c(c1)c(CN1CCOCCNC(=O)CC1)cn2C	598
CC(C)n1cc(C2=CCN(S(=O)(=O)Cc3ccccc3)CC2)c2cccnc21	1020
O=C(NCc1cccc(F)c1)N1C[C@@H]2C[C@H](NS(=O)(=O)c3ccccc3)[C@H]1C2	782
CC(C)NC(=O)c1ccc(-c2nc3cc(NS(=O)(=O)c4cc(F)ccc4F)ccc3n2C)cc1	705
CSc1ccc(-c2nc3cnccn3c2NC2CCCCC2)cc1	1010
CN(CC#N)C(=O)c1ccc2c(c1)CCN2C(=O)C1CC1	680
O=C(Nc1ccc(-c2nc(-c3ccc(F)cc3)no2)cc1)c1cccs1	1170
Cc1ccc(N2CCC(NC(=O)C3CCCC3)C2=O)cc1 (centres undefined)	762
COc1cccc(-c2cc3n(n2)CCCN(C(=O)Cc2ccsc2)C3)c1	587
COc1ccc(Cl)cc1N1C=C(C#N)S(=O)(=O)c2ccc(F)cc21	968
O=C(Nc1cc(-c2ccccn2)no1)c1nccc2ccccc12	956
CCCNC(=O)C1CCCN(C(=O)c2cc(C)cc(C)c2)C1 (centres undefined)	746
O=C(c1ccc2cc[nH]c2c1)N1CCCN(c2cc(-c3ccc(Cl)cc3)[nH]n2)CC1	770
O=C(Nc1ccc(F)c(F)c1)c1cccn1Cc1noc(-c2ccccc2)n1	1100
CCN(CC)S(=O)(=O)c1ccc2c(c1)cc(C(=O)NCCc1c[nH]c3ccc(Cl)cc13)n2C	1060
O=C(/C=C/c1ccccc1)NC(NC(=S)Nc1cccc2cccnc12)C(Cl)(Cl)Cl (centres undefined)	1020
Cc1ccc(NS(=O)(=O)c2ccc3c(c2)C(=O)N(C)c2ncccc2O3)c(C)c1	986
CCCn1c(=O)sc2cc(S(=O)(=O)N3CCC(C(=O)N4c5ccccc5CC4C)CC3)ccc21 (centres undefined)	1080

Structure (SMILES)	RP-LC retention time [s]
O=c1n(Cc2cccc(F)c2)nc2ccc(S(=O)(=O)N3CCCCC3)cn12	952
CNC(=O)N1c2ccccc2CC1c1nc(C(C)C)no1 (centres undefined)	799
O=C(NCc1cccc(Cl)c1)C1CCCN(c2nc3cccnc3n(Cc3ccccc3)c2=O)C1 (centres undefined)	1190
CN1CCc2nnc(C3CCCN3C(=O)Nc3ccc(Cl)cc3C(F)(F)F)n2CC1 (centres undefined)	594
COc1cc(NC(=O)N2CCC(C)(C(=O)NCc3ccc(F)cc3)CC2)cc(OC)c1OC	737
CCN1C(=O)c2c(C(=O)NCCCc3ccccc3)ncn2CC1(C)C(=O)NC1CCCC1 (centres undefined)	822
COC(=O)C(Cc1ccccc1)NC(=O)N1CCCn2nc(-c3cccnc3)cc2C1 (centres undefined)	616
COc1cccc(S(=O)(=O)N2CCN(c3cc(C)nc(N4CCOCC4)n3)CC2)c1	668
CC(C)CC(=O)N1CCN(c2ccc(=O)n(-c3cccc(Cl)c3)n2)CC1	829
CCN(CCNC(=O)C1CCc2nc(N3CCOCC3)ncc2C1)c1ccccc1 (centres undefined)	591
COc1ccc2nc(NC(=O)CCCN3C(=O)C4C5C=CC(C5)C4C3=O)sc2c1 (centres undefined)	817
CCOC(=O)c1noc2ncnc(Nc3ccccc3OCC)c12	971
Cc1ccccc1CNC(=O)CCC1CCN(c2cc(NC3CC3)ncn2)CC1	585
CCn1cc(C(=O)Nc2ccc(C)c(F)c2)c(S(=O)(=O)N2CCSCC2)n1	901
O=C(Nc1ccc(Cl)cc1)C1CCN(S(=O)(=O)c2ccc3[nH]c(=O)sc3c2)CC1	854
CCOCc1nc(C2CCCN2S(=O)(=O)c2ccc3c(c2)CCC3)no1 (centres undefined)	1020
COc1cccc(N2CCN(c3ccnc(SCC(=O)NCCC4=CCCCC4)n3)CC2)c1	862
CC(=O)c1cccc(NC(=O)CN2C(=O)CC(c3ccccc3)=Nc3cccnc32)c1	854
COc1ccc(NC(=O)N2CCN(c3cc(-n4nc(C)cc4C)ncn3)CC2)cc1Cl	852
COCCN1C(=O)CCC2(CNC(=O)c3cnccn3)CCCC=C12 (centres undefined)	657
O=C(Nc1ccc(F)cc1F)c1noc2c1CCCC2	883
COc1ccc(NC(=O)Cn2ccc3ccc(-c4nnc(C)o4)cc32)cc1Cl	811
